Reference: ChEMBL document CHEMBL1944600, “Synthesis of chromeno[3,4-b]indoles as Lamellarin D analogues: a novel DYRK1A inhibitor class” (Eur J Med Chem, 2012)

Legend:
[1] = target: Dual specificity tyrosine-phosphorylation-regulated kinase 1A (Rattus norvegicus, UniProt Q63470); test: Inhibition of GST-tagged rat recombinant DYRK1A expressed in Escherichia coli using myelin basic protein as substrate and [gamma-33P]ATP after 30 mins by scintillation counting
[2] = target: Cyclin-dependent kinase 5/CDK5 activator 1 (Homo sapiens, UniProt Q00535); test: Inhibition of human recombinant CDK5/p25 using [gamma-33P]ATP after 30 mins by scintillation counting; format: protein-complex assay
[3] = target: Glycogen synthase kinase-3 (Sus scrofa, UniProt B2LUN4+I6LNT8); test: Inhibition of porcine brain GSK3alpha/beta using GS-1 as substrate
CCRF-CEM = test: Cytotoxicity against human CEM cells; format: functional, cell-based
[4] = target: T1, DNA topoisomerase 1 (Homo sapiens) (UniProt P11387); test: Human topoisomerase 1-mediated nicking of supercoiled plasmid pUC19 DNA at 20 uM by agarose gel electrophoresis
T1 sequence (whole entry): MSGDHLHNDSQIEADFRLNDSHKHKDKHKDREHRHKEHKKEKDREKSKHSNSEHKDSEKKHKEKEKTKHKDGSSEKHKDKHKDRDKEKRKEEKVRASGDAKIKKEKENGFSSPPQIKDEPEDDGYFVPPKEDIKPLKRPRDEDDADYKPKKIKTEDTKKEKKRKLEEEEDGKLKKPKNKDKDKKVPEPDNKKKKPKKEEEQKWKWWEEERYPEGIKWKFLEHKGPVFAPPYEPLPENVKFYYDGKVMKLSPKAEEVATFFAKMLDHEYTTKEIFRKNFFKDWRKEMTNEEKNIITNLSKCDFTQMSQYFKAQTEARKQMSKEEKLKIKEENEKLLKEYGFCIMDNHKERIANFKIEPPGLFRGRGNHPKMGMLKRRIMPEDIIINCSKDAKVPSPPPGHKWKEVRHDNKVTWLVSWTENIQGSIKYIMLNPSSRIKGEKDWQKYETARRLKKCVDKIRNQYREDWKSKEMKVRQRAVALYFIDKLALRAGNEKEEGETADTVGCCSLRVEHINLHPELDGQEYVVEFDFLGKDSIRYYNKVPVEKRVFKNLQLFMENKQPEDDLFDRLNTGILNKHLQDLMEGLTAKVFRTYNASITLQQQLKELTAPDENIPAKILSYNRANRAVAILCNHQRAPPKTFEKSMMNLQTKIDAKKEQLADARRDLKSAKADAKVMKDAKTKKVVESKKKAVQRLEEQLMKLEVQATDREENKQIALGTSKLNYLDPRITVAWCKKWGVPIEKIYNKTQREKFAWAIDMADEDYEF

[5] = target: T1, DNA topoisomerase 1 (Homo sapiens); test: Human topoisomerase 1-mediated nicking of supercoiled plasmid pUC19 DNA at 100 uM by agarose gel electrophoresis

Sequence of Cyclin-dependent kinase 5/CDK5 activator 1 (Q00535 whole entry): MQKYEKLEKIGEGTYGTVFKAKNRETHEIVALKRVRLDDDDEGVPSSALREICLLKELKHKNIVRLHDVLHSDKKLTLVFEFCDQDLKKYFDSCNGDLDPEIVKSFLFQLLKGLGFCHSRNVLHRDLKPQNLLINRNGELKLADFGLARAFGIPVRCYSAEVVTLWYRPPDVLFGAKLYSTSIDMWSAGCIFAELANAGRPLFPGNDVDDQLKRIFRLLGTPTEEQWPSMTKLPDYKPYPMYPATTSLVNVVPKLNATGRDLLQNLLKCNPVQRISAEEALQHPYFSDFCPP
Sequence of Cyclin-dependent kinase 5/CDK5 activator 1 (Q15078 whole entry, further chain): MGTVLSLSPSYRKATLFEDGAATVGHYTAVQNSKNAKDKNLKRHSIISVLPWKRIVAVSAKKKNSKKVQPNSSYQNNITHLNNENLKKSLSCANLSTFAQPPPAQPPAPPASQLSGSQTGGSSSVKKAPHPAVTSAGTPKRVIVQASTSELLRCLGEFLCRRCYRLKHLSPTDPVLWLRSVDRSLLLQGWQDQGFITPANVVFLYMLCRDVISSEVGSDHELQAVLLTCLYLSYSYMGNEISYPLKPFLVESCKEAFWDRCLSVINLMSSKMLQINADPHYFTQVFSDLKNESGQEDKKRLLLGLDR

Row | IC50 [1] [µM] | IC50 [2] [µM] | IC50 [3] | SMILES | IC50 (CCRF-CEM) [µM] | % nicked DNA [4] [%] | % nicked DNA [5] [%]
1 | 2.1 | > 10 | >= 10 uM | O=c1oc2ccc(O)cc2c2c1[nH]c1cccc(C(F)(F)F)c12 |  |  | 
2 | 0.5 | 4.7 | 0.44 µM | O=c1oc2cc(O)ccc2c2c1[nH]c1ccccc12 |  |  | 
3 | 0.35 | ≥ 10 | 3.3 µM | COc1cccc2[nH]c3c(=O)oc4ccc(O)cc4c3c12 |  |  | 
4 | 1.5 | > 10 | 1.3 µM | O=c1oc2cc(O)c(O)cc2c2c1[nH]c1ccc(O)cc12 |  |  | 
5 | 0.067 | 0.72 | 0.31 µM | O=c1oc2ccc(O)cc2c2c1[nH]c1ccc(O)cc12 |  |  | 
6 | 0.66 | > 10 | 5.9 µM | Cc1cccc2[nH]c3c(=O)oc4ccc(O)cc4c3c12 |  |  | 
7 | ≥ 10 | ≥ 10 | >= 10 uM | O=c1oc2ccc(O)cc2c2c1[nH]c1ccc(C(F)(F)F)cc12 |  |  | 
8 | > 10 | > 10 | > 10 µM | COc1ccc(-c2ccc3c(c2)[nH]c2c(=O)oc4ccc(O)cc4c23)cc1 |  |  | 
9 |  |  |  | CC[C@@]1(O)C(=O)OCc2c1cc1n(c2=O)Cc2cc3ccccc3nc2-1 [CAMPTOTHECIN] | 0.005 |  | 
10 | 0.21 | 8.4 | 2.5 µM | O=c1oc2ccc(O)cc2c2c1[nH]c1ccc(F)cc12 |  |  | 
11 | 0.3 | 4.2 | 0.42 µM | O=c1oc2cc(O)ccc2c2c1[nH]c1ccc(O)cc12 | 38.5 | 16 | 21
12 | > 10 | > 10 | > 10 µM | COc1cccc2oc(=O)c3[nH]c4ccccc4c3c12 |  |  | 
13 | 4.3 | > 10 | > 10 µM | O=c1oc2ccc(O)cc2c2c1[nH]c1cc(O)ccc12 |  |  | 
14 | 1.8 | 16 | > 10 µM | O=c1oc2ccc(O)cc2c2c1[nH]c1cc3c(cc12)OCO3 |  |  | 
15 | 1.7 | > 10 | 8.1 µM | CCCOc1cccc2[nH]c3c(=O)oc4ccc(O)cc4c3c12 |  |  | 
16 | 3.3 | > 10 | > 10 µM | Cc1ccc2c(c1)[nH]c1c(=O)oc3ccc(O)cc3c12 |  |  | 
17 | > 10 | > 10 | > 10 µM | O=c1oc2ccccc2c2c1[nH]c1ccccc12 |  |  | 
18 | ≥ 10 | ≥ 10 | > 10 µM | O=c1oc2ccc(O)cc2c2c1[nH]c1cccc(-c3ccc(O)cc3)c12 |  |  | 
19 |  |  |  | COc1cc(-c2c3c4cc(OC)c(O)cc4oc(=O)c3n3ccc4cc(O)c(OC)cc4c23)ccc1O [LAMELLARIN D] | 15 | 22 | 21
20 | 0.074 | 2.7 | 0.38 µM | O=c1oc2ccc(O)cc2c2c1[nH]c1ccccc12 |  |  | 
21 | 3.2 | 10 | 10 µM | O=c1oc2cc(O)ccc2c2c1[nH]c1cc(O)ccc12 |  |  | 
22 | ≥ 10 | ≥ 10 | > 10 µM | O=c1oc2ccccc2c2c1[nH]c1cccc(-c3ccc(O)cc3)c12 |  |  | 
